The target in assay [1] is Cholinesterases; ACHE & BCHE (Homo sapiens) (UniProt P06276+P22303). As to the kind of experiment: Ratio between IC50 of human BChE and human AChE. It is filed as protein assay.
Assay [2] has as its target Acetylcholinesterase (Homo sapiens, UniProt P22303).
Description: Inhibition of acetylcholinesterase isolated from Human erythrocytes.
A further assay deals with Cholinesterase (Homo sapiens, UniProt P06276).
In assay [3] the target is T1, Acetylcholinesterase (Bos taurus, UniProt P23795).
T1 sequence (P23795 whole entry): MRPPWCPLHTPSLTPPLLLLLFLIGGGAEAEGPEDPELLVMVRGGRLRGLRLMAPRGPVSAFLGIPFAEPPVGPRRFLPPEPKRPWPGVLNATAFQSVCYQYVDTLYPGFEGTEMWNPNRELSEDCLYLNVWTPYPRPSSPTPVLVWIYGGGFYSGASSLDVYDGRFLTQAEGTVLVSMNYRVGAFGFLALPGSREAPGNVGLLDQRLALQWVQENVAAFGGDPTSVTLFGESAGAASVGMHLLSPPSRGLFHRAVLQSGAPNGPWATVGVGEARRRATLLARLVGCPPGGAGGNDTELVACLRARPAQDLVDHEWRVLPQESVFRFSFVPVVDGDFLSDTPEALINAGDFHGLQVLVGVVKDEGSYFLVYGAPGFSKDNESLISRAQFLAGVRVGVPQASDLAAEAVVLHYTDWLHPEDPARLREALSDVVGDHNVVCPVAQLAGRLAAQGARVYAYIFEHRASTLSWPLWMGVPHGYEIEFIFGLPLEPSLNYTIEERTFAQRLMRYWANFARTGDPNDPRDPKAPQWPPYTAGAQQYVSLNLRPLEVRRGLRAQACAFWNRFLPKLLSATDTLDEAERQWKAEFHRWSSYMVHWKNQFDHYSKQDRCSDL
Description: Compound was evaluated for the inhibition of acetylcholinesterase of bovine erythrocytes

Assay [4] is described as follows: Compound was evaluated for the antagonism index 10 uM; NR is No Reversion. In kind it is functional.
Assay [5] is described as follows: Compound was evaluated for the antagonism index 10 uM; NR ismNo reversion. In kind it is functional.
For assay [6], the target named is T1, Acetylcholinesterase. This is another data set of the same source.
The target in assay [7] is T1, Acetylcholinesterase. This is another data set of the same source.
Description: Compound was evaluated for the inhibition of acetylcholinesterase activity from bovine erythrocytes after 0 minutes of incubation
The nature of assay [8]: Compound was evaluated for the antagonism index at 1 uM. It is filed as functional.

Some results are limits rather than exact numbers.

Sequence of Cholinesterase (P06276 whole entry): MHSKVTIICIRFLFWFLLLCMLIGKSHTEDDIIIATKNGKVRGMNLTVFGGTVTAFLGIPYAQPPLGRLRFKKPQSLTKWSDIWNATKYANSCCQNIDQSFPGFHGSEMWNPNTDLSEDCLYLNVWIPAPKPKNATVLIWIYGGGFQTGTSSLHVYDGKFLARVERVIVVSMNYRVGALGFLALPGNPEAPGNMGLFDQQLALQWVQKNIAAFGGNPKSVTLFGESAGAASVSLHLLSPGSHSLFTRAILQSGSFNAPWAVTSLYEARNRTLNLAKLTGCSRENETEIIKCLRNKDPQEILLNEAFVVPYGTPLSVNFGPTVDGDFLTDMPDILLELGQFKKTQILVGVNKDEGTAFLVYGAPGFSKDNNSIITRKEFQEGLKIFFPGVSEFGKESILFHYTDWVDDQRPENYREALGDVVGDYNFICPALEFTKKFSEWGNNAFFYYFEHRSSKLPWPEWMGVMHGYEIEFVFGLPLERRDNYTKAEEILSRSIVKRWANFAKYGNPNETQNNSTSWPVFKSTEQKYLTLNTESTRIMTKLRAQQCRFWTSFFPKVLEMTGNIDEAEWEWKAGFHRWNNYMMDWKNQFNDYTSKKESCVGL
Sequence of Cholinesterases; ACHE & BCHE (Homo sapiens) (P06276 whole entry, looked up): as the sequence (P06276 whole entry) above
Sequence of Cholinesterases; ACHE & BCHE (Homo sapiens) (P22303 whole entry, looked up): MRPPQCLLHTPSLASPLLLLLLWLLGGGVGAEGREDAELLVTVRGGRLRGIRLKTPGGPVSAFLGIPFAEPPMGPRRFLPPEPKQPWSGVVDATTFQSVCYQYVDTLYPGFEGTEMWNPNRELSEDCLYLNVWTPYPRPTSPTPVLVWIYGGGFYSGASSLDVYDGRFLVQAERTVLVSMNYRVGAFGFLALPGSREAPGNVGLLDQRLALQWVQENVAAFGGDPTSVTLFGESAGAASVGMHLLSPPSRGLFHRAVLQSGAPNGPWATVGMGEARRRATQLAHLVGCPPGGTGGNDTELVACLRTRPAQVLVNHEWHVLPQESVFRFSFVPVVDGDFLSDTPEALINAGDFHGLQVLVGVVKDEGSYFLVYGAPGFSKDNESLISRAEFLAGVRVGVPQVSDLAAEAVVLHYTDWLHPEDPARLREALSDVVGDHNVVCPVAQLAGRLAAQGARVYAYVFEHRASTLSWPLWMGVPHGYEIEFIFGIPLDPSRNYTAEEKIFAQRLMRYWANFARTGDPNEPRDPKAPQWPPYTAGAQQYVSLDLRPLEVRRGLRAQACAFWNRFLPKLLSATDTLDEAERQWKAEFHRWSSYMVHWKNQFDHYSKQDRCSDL
Sequence of Acetylcholinesterase (Homo sapiens, UniProt P22303) (P22303 whole entry): as the sequence (P22303 whole entry, looked up) above

For the compound `CC1=CC2Cc3nc4cccc(F)c4c(N)c3C(C1)C2` (stereo not drawn), in [1], the Ratio was found to be 15.3. This compound also yielded an IC50 on Acetylcholinesterase [2] of 35.4 nM.

Turning to `CCC1=CC2Cc3nc4cccc(Cl)c4c(N)c3C(C1)C2` (stereo not drawn), the IC50 against Cholinesterase came to 331 nM; at Acetylcholinesterase [2] it was 11.7 nM.

With `CCC1=CC2Cc3nc4cc(C)cc(C)c4c(N)c3C(C1)C2` (stereo not drawn), in assay [1], the Ratio was 6.57. Besides, the figures for the concentration for half-maximal inhibition (IC50) against Cholinesterase, against Acetylcholinesterase [3] and at Acetylcholinesterase [2] were 32.6 nM, 3.59 nM and 4.96 nM, respectively.

As to `CC1=CC2Cc3nc4cc(F)cc(F)c4c(N)c3C(C1)C2` (stereo not drawn), in assay [1], the Ratio worked out at 438. In addition, the figures for the IC50 on Cholinesterase and on Acetylcholinesterase [2] were 963 nM and 2.2 nM, respectively.

For the compound `CCC1=CC2Cc3nc4cc(F)cc(F)c4c(N)c3C(C1)C2` (stereo not drawn), the half-maximal inhibitory concentration (IC50) amounted to 194 nM at Cholinesterase, 2.62 nM at Acetylcholinesterase [3] and 1.76 nM at Acetylcholinesterase [2].

For the compound `CCC1=CC2Cc3nc4cc(Cl)cc(Cl)c4c(N)c3C(C1)C2` (stereo not drawn), the results for the IC50 against Cholinesterase, at Acetylcholinesterase [3] and at Acetylcholinesterase [2] were 1210 nM, 39.6 nM and 1.39 nM, respectively.

Regarding `CC1=C[C@@H]2Cc3nc4cc(F)ccc4c(N)c3[C@H](C1)C2`, the Ratio in [1] was determined as 43. The same compound came in with an IC50 at Acetylcholinesterase [2] of 4.58 nM.

On to `CCC1=CC2Cc3nc4cc(C)ccc4c(N)c3C(C1)C2` (stereo not drawn), for which the NR result in assay [4] was “No reversion”.

`CCC1=CC2Cc3nc4cc(Cl)ccc4c(N)c3[C@@H](C1)C2` (mixture of isomers; (+)): the NR result in assay [5] is “No reversion”.

As for `CCC1=CC2Cc3nc4cc(Cl)ccc4c(N)c3[C@@H](C1)C2` (mixture of isomers; (+)) [HUPRINE X], the IC50 against Acetylcholinesterase [6] was 350 nM; at Cholinesterase, 58.3 nM; on Acetylcholinesterase [3] it was 402 nM; on Acetylcholinesterase [2] it was 23.1 nM; against Acetylcholinesterase [7] it was 240 nM.

As to `CCC1=CC2Cc3nc4cc(Cl)ccc4c(N)c3[C@@H](C1)C2` (mixture of isomers; (-)) [HUPRINE X], the IC50 was found to be 0.0674 nM on Acetylcholinesterase [6]; 159 nM at Cholinesterase; 1.3 nM against Acetylcholinesterase [3]; 0.32 nM on Acetylcholinesterase [2]; 2.31 nM on Acetylcholinesterase [7].

`CC1=CC2Cc3nc4cc(Cl)ccc4c(N)c3C(C1)C2` (racemic; (+)) came in with an inhibition in assay [8] of 22.1%.

On to `CC1=CC2Cc3nc4cc(Cl)ccc4c(N)c3C(C1)C2` (racemic; (+)) [HUPRINE Y], for which the IC50 against Cholinesterase was determined as 153 nM; on Acetylcholinesterase [3], 65 nM.

On to `CC1=CC2Cc3nc4cc(Cl)ccc4c(N)c3C(C1)C2` (racemic; (-)) [HUPRINE Y], for which the IC50 is 0.0245 nM on Acetylcholinesterase [6], 247 nM against Cholinesterase, 1.15 nM at Acetylcholinesterase [3] and 3.03 nM on Acetylcholinesterase [7].

`CCC1=CC2Cc3nc4cc(Cl)ccc4c(N)c3[C@@H](C1)C2` (stereo in doubt) [HUPRINE X]: the IC50 against Acetylcholinesterase [6] was determined as 0.23 nM; against Cholinesterase, 15.8 nM; at Acetylcholinesterase [3], 2.77 nM; on Acetylcholinesterase [2], 0.75 nM; against Acetylcholinesterase [7] it was 3.34 nM.

For `CC1=CC2Cc3nc4cc(Cl)ccc4c(N)c3C(C1)C2` (stereo in doubt) [HUPRINE Y], the IC50 against Acetylcholinesterase [6] was 0.64 nM; at Cholinesterase it was 236 nM; on Acetylcholinesterase [3], 4.23 nM; at Acetylcholinesterase [7], 3.1 nM.

`C/C=C1\[C@H]2C=C(C)C[C@]1(N)c1ccc(=O)[nH]c1C2` [HUPERZINE A] yielded an IC50 at Cholinesterase above 10000 nM.

As usually defined, the IC50 is the point on the concentration scale where inhibition reaches its midpoint. The low end stands for inhibition by little substance, the high end for a need for much substance. As usually defined, the inhibition is the relative decrease from the control value, in per cent. Low values mean a weak effect, high ones a strong effect.
